A word on the EC50: it is the midpoint of the concentration-response curve. Higher therefore signals lower potency in that assay. The Emax is the greatest response seen or fitted, relative to the assay's reference.

The values that follow come from patent publication US20230141198A1, “PYRAZOL[…]” (THE KITASATO INSTITUTE, priority 2019, published 2023).

Format in all cases: cell-based
For one test, the target named is T1, human opioid δ receptor (Homo sapiens, UniProt P41143).
T1 construct: host or cells: CHO cells
T1 sequence (P41143 whole entry): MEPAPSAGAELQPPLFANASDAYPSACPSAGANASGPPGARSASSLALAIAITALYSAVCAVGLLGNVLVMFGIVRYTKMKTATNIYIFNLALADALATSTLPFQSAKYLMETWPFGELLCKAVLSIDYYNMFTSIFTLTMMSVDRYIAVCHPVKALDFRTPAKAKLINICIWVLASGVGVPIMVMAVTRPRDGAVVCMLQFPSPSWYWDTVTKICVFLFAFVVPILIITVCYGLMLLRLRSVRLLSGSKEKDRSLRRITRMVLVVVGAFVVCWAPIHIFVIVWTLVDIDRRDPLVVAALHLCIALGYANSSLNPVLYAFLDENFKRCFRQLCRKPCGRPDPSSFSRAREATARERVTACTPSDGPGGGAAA
The test is described as follows: Opioid receptor function test (agonist activity, Lance Ultra cAMP kit), δ receptor. The settings on record: for Emax: maximum reaction relative to control drug SNC 80 taken as 100%. The source says: (§1) Opioid Receptor Function Test
(§2) Functional activity of the compound provided by the present invention on μ, δ, and κ opioid receptors was examined.
(§3) Method: Using a Lance Ultra cAMP kit (Perkin Elmer), the functional activity was examined by a predetermined method. In evaluation of agonist activity, CHO cells expressing each of human opioid receptors (δ, μ, and κ: accession numbers and catalog numbers are described below) were reacted with a test compound in an assay buffer (1× HBSS, […], pH 7.4, […] isobutylmethylxanthine (IBMX), 7.5% BSA) in the presence of 10 μM forskolin for 30 minutes. Subsequently, a cAMP detection reagent in the kit was added. One hour later, time-resolved fluorescence measurement was performed using an EnVision plate reader (Perkin Elmer). The test compound and each control drug (δ: SNC 80, μ: DAMGO, κ: U-69593) were evaluated in a concentration range of 10^−12 to 10^−5 M. A dose reaction curve of the test compound was determined from a fluorescence value at 665 nm, and an EC50 value and an Emax value were calculated. The Emax value was determined as a ratio of a maximum reaction of the test compound when a maximum reaction of each control drug was taken as 100%.

In the next test the target is T2, human opioid κ receptor (Homo sapiens, UniProt P41145).
T2 construct: host or cells: CHO cells
T2 sequence (P41145 whole entry): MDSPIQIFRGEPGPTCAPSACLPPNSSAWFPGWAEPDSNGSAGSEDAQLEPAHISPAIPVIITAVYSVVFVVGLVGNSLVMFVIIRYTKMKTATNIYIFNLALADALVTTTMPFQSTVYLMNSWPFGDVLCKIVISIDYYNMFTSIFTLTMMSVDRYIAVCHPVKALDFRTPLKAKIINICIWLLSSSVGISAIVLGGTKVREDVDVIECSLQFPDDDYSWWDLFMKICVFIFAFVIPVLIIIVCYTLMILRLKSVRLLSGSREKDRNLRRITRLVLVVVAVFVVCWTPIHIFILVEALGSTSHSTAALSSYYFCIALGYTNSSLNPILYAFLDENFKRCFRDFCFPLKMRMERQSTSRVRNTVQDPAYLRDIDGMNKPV
The test is described as follows: Opioid receptor function test (agonist activity, Lance Ultra cAMP kit), κ receptor. The note with it: for Emax: maximum reaction relative to control drug U-69593 taken as 100%.
Excerpt: as §1, §2, §3

Another test addresses T3, human opioid μ receptor (Homo sapiens, UniProt P35372).
T3 construct: host or cells: CHO cells
The test can be described thus: Opioid receptor function test (agonist activity, Lance Ultra cAMP kit), μ receptor. The note with it: for Emax: maximum reaction relative to control drug DAMGO taken as 100%.
Excerpt: as §1, §2, §3

T3 sequence (P35372 whole entry): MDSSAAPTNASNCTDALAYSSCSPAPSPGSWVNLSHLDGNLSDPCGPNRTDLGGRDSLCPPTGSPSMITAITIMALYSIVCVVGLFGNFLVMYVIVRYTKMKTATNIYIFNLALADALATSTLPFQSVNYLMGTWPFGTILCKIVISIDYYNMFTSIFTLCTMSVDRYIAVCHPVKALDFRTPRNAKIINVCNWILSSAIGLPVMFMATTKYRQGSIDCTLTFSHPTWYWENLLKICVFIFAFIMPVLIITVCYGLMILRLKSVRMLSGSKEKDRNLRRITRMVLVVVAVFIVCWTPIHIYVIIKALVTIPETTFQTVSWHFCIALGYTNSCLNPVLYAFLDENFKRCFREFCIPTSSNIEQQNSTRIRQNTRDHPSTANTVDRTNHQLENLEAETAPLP

On human opioid δ receptor, `Cc1nn(C2CCOCC2)c2c1C[C@@]1(O)[C@H]3Cc4ccc(O)cc4[C@@]1(CCN3CC1CC1)C2` [Compound 88, (6R,6aS,11aR)-14-(cyclopropylmethyl)-8-methyl-10-(tetrahydro-2H-pyran-4-yl)-5,6,10,11-tetrahydro-6,11a-(epiminoethano)naphtho[2,1-f]indazole-2,6a(7H)-diol] came in with an EC50 of 0.086 nM and an Emax of 113%.
At human opioid δ receptor, `Cc1nn(C(=O)c2ccccc2)c2c1C[C@@]1(O)[C@H]3Cc4ccc(O)cc4[C@@]1(CCN3CC1CC1)C2` [Compound 36, ((6R,6aS,11aR)-14-(cyclopropylmethyl)-2,6a-dihydroxy-8-methyl-6,6a,7,11-tetrahydro-6,11a-(epiminoethano)naphtho[2,1-f]indazol-10(5H)-yl)(phenyl)methanone] showed an EC50 of 3.4 nM and an Emax of 65%.
For the compound `Cc1c2c(nn1C1CCSCC1)C[C@]13CCN(CC4CC4)[C@H](Cc4ccc(O)cc41)[C@]3(O)C2` [Compound 90, (6R,6aS,11aR)-14-(cyclopropylmethyl)-8-methyl-9-(tetrahydro-2H-thiopyran-4-yl)-5,6,9,11-tetrahydro-6,11a-(epiminoethano)naphtho[2,1-f]indazole-2,6a(7H)-diol], on human opioid κ receptor, a half-maximal response (EC50) required 8.1 nM and the Emax turned out to be 15%. At human opioid δ receptor, this compound gave a half-maximal effective concentration (EC50) of 0.092 nM and an Emax of 116%.
For the compound `Cc1nn(C2CC2)c2c1C[C@@]1(O)[C@H]3Cc4ccc(O)cc4[C@@]1(CCN3CC1CC1)C2` [Compound 82, (6R,6aS,11aR)-10-cyclopropyl-14-(cyclopropylmethyl)-8-methyl-5,6,10,11-tetrahydro-6,11a-(epiminoethano)naphtho[2,1-f]indazole-2,6a(7H)-diol], at human opioid δ receptor, the EC50 worked out at 0.93 nM and the Emax came to 39%.
As to `Cc1c2c(nn1C1CCCC1)C[C@]13CCN(CC4CC4)[C@H](Cc4ccc(O)cc41)[C@]3(O)C2` [Compound 87, (6R,6aS,11aR)-9-cyclopentyl-14-(cyclopropylmethyl)-8-methyl-5,6,9,11-tetrahydro-6,11a-(epiminoethano)naphtho[2,1-f]indazole-2,6a(7H)-diol], the EC50 at human opioid κ receptor came out at 59 nM; at human opioid μ receptor it was 28 nM; on human opioid δ receptor, 0.11 nM. The values for the Emax at human opioid κ receptor, at human opioid μ receptor and on human opioid δ receptor were 30%, 24% and 106%, respectively.
On to `Cc1nn(C2CCN(C)CC2)c2c1C[C@@]1(O)[C@H]3Cc4ccc(O)cc4[C@@]1(CCN3CC1CC1)C2` [Compound 91, (6R,6aS,11aR)-14-(cyclopropylmethyl)-8-methyl-10-(1-methylpiperidin-4-yl)-5,6,10,11-tetrahydro-6,11a-(epiminoethano)naphtho[2,1-f]indazole-2,6a(7H)-diol], for which the EC50 on human opioid κ receptor came to 15 nM; on human opioid μ receptor, 32 nM; at human opioid δ receptor it was 0.23 nM. Moreover, the Emax on human opioid κ receptor is 25%; on human opioid μ receptor, 12%; at human opioid δ receptor it was 112%.
For `Cc1c2c(nn1CC1CCCCC1)C[C@]13CCN(CC4CC4)[C@H](Cc4ccc(O)cc41)[C@]3(O)C2` [Compound 42, (6R,6aS,11aR)-9-(cyclohexylmethyl)-14-(cyclopropylmethyl)-8-methyl-5,6,9,11-tetrahydro-6,11a-(epiminoethano)naphtho[2,1-f]indazole-2,6a(7H)-diol], at human opioid δ receptor, the EC50 stood at 1 nM and the Emax was 90%.
Regarding `Cc1c2c(nn1CC1CC1)C[C@]13CCN(CC4CC4)[C@H](Cc4ccc(O)cc41)[C@]3(O)C2` [Compound 46, (6R,6aS,11aR)-9,14-bis(cyclopropylmethyl)-8-methyl-5,6,9,11-tetrahydro-6,11a-(epiminoethano)naphtho[2,1-f]indazole-2,6a(7H)-diol], on human opioid δ receptor, the half-maximal effective concentration (EC50) was determined as 0.17 nM and the Emax was 105%.
On human opioid δ receptor, `Cc1nn(-c2nccs2)c2c1C[C@@]1(O)[C@H]3Cc4ccc(O)cc4[C@@]1(CCN3CC1CC1)C2` [Compound 51, (6R,6aS,11aR)-14-(cyclopropylmethyl)-8-methyl-10-(thiazol-2-yl)-5,6,10,11-tetrahydro-6,11a-(epiminoethano)naphtho[2,1-f]indazole-2,6a(7H)-diol] gave an EC50 of 0.94 nM and an Emax of 54%.
At human opioid δ receptor, `Cc1nn(C2CCCCC2)c2c1C[C@@]1(O)[C@H]3Cc4ccc(O)cc4[C@@]1(CCN3CC1CC1)C2` [Compound 32, (6R,6aS,11aR)-10-cyclohexyl-14-(cyclopropylmethyl)-8-methyl-5,6,10,11-tetrahydro-6,11a-(epiminoethano)naphtho[2,1-f]indazole-2,6a(7H)-diol] had an EC50 of 0.089 nM and an Emax of 111%.
On human opioid κ receptor, `Cc1nn(-c2ccncc2)c2c1C[C@@]1(O)[C@H]3Cc4ccc(O)cc4[C@@]1(CCN3CC1CC1)C2` [Compound 28, (6R,6aS,11aR)-14-(cyclopropylmethyl)-8-methyl-10-(pyridin-4-yl)-5,6,10,11-tetrahydro-6,11a-(epiminoethano)naphtho[2,1-f]indazole-2,6a(7H)-diol] had an EC50 of 58 nM and an Emax of 15%. On human opioid δ receptor, this compound returned a concentration giving a half-maximal response (EC50) of 0.33 nM and an Emax of 101%.
At human opioid δ receptor, `Cc1nn(CC2CC2)c2c1C[C@@]1(O)[C@H]3Cc4ccc(O)cc4[C@@]1(CCN3CC1CC1)C2` [Compound 45, (6R,6aS,11aR)-10,14-bis(cyclopropylmethyl)-8-methyl-5,6,10,11-tetrahydro-6,11a-(epiminoethano)naphtho[2,1-f]indazole-2,6a(7H)-diol] displayed an EC50 of 0.75 nM and an Emax of 72%.
In the case of `Cc1nn(-c2ccccc2)c2c1C[C@@]1(O)[C@H]3Cc4ccc(O)cc4[C@@]1(CCN3CC1CC1)C2` [Compound 21, (6R,6aS,11aR)-14-(cyclopropylmethyl) methyl-10-phenyl-5,6,10,11-tetrahydro-6,11a-(epiminoethano)naphtho[2,1-f]indazole-2,6a(7H)-diol], at human opioid δ receptor, the half-maximal effective concentration (EC50) is 0.76 nM and the Emax turned out to be 81%.
For `O=c1c2c([nH]n1-c1ccccc1)C[C@]13CCN(CC4CC4)[C@H](Cc4ccc(O)cc41)[C@]3(O)C2` [Compound 68, (6R,6aS,11aR)-14-(cyclopropylmethyl)-2,6a-dihydroxy-9-phenyl-6,6a,7,9,10,11-hexahydro-6,11a-(epiminoethano)naphtho[2,1-f]indazol-8(5H)-one], in that order: 1.4 nM and 100%.
On human opioid δ receptor, `Cc1nn(C2CCC2)c2c1C[C@@]1(O)[C@H]3Cc4ccc(O)cc4[C@@]1(CCN3CC1CC1)C2` [Compound 84, (6R,6aS,11aR)-10-cyclobutyl-14-(cyclopropylmethyl)-8-methyl-5,6,10,11-tetrahydro-6,11a-(epiminoethano)naphtho[2,1-f]indazole-2,6a(7H)-diol] registered an EC50 of 0.34 nM and an Emax of 95%.
For `Cc1nn(C2CCCC2)c2c1C[C@@]1(O)[C@H]3Cc4ccc(O)cc4[C@@]1(CCN3CC1CC1)C2` [Compound 86, (6R,6aS,11aR)-10-cyclopentyl-14-(cyclopropylmethyl)-8-methyl-5,6,10,11-tetrahydro-6,11a-(epiminoethano)naphtho[2,1-f]indazole-2,6a(7H)-diol], in that order: 0.12 nM and 101%.
At human opioid δ receptor, `Cc1nn(C2CCSCC2)c2c1C[C@@]1(O)[C@H]3Cc4ccc(O)cc4[C@@]1(CCN3CC1CC1)C2` [Compound 89, (6R,6aS,11aR)-14-(cyclopropylmethyl)-8-methyl-10-(tetrahydro-2H-thiopyran-4-yl)-5,6,10,11-tetrahydro-6,11a-(epiminoethano)naphtho[2,1-f]indazole-2,6a(7H)-diol] came in with a 50% effective concentration (EC50) of 0.069 nM and an Emax of 112%.
On human opioid δ receptor, `Cc1nn(-c2ccccn2)c2c1C[C@@]1(O)[C@H]3Cc4ccc(O)cc4[C@@]1(CCN3CC1CC1)C2` [Compound 27, (6R,6aS,11aR)-14-(cyclopropylmethyl)-8-methyl-10-(pyridin-2-yl)-5,6,10,11-tetrahydro-6,11a-(epiminoethano)naphtho[2,1-f]indazole-2,6a(7H)-diol] came in with an EC50 of 0.83 nM and an Emax of 51%.
On human opioid δ receptor, `Cc1[nH]nc2c1C[C@@]1(O)[C@H]3Cc4ccc(O)cc4[C@@]1(CCN3CC1CC1)C2` [34, 35] gave an EC50 of 1.3 nM and an Emax of 42%.
Turning to `Cc1nn(-c2cccnc2)c2c1C[C@@]1(O)[C@H]3Cc4ccc(O)cc4[C@@]1(CCN3CC1CC1)C2` [Compound 49, (6R,6aS,11aR)-14-(cyclopropylmethyl)-8-methyl-10-(pyridin-3-yl)-5,6,10,11-tetrahydro-6,11a-(epiminoethano)naphtho[2,1-f]indazole-2,6a(7H)-diol], at human opioid δ receptor, the EC50 came out at 0.5 nM and the Emax was 73%.
On human opioid κ receptor, `Cc1c2c(nn1C1CCCCC1)C[C@]13CCN(CC4CC4)[C@H](Cc4ccc(O)cc41)[C@]3(O)C2` [Compound 33, (6R,6aS,11aR)-9-cyclohexyl-14-(cyclopropylmethyl)-8-methyl-5,6,9,11-tetrahydro-6,11a-(epiminoethano)naphtho[2,1-f]indazole-2,6a(7H)-diol] gave an EC50 of 44 nM and an Emax of 13%. On human opioid δ receptor, this compound had an EC50 of 0.14 nM and an Emax of 108%.
